# Reference: patent US10323022B2, “Pyrrolidinyl urea, pyrrolidinyl thiourea and pyrrolidinyl guanidine compounds as TrkA kinase inhibitors” (Array BioPharma Inc., priority 2011, dated 2019)
# Structures can show the parent of a compound that is named as a salt.
# Molecular target: TrkA (Homo sapiens (Human), UniProt P04629)
# Test: TrkA Omnia Assay
# Assay type: biochemical
# Conditions: averaged IC50; 20 nM enzyme, 500 μM ATP, 10 μM peptide substrate
# Procedure, shortened: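 Recombinant TrkA (20 nM) preincubated 10 min at ambient temperature with compound, then Omnia Tyr Peptide #4 (10 μM) and ATP (500 μM) added in 25 mM MOPS pH 7.5, 5 mM MgCl2, 0.005% Triton X-100. Fluorescence (ex 360/em 485 nm) followed continuously for 70 min; IC50 from initial rates by 4- or 5-parameter logistic fit.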
# Sequence of TrkA (P04629 33-796): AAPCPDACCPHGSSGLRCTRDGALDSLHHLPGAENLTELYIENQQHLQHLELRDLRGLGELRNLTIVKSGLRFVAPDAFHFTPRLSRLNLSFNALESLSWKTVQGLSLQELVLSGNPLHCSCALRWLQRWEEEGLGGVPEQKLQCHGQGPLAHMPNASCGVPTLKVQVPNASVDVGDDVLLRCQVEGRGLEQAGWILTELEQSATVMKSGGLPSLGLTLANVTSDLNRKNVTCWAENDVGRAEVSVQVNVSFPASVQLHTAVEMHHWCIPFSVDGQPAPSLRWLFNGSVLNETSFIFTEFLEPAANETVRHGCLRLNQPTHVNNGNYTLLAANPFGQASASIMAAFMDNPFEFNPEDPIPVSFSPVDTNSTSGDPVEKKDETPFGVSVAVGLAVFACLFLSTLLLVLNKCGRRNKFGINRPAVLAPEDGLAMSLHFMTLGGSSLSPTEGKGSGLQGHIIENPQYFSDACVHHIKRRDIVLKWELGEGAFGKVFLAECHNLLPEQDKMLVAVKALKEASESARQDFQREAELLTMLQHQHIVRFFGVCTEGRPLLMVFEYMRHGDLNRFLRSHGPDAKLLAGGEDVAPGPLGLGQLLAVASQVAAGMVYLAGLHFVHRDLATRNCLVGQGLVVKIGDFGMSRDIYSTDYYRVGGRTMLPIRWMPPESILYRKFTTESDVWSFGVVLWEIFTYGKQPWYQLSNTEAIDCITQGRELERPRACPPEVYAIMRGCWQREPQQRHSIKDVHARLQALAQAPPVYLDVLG
row,SMILES,IC50
1,"COCCN1C[C@@H](NC(=O)Nc2c(C)c(-c3cn(C)cn3)nn2-c2ccccc2)[C@H](c2ccc(F)c(F)c2)C1 [Example 608, 1-((3S,4R)-4-(3,4-difluorophenyl)-1-(2-methoxyethyl)pyrrolidin-3-yl)-3-(4-methyl-3-(1-methyl-1H-imidazol-4-yl)-1-phenyl-1H-pyrazol-5-yl)urea]",< 100 nM
2,"COCCN1C[C@@H](NC(=O)Nc2c(C)c(=O)[nH]n2-c2ccccc2)[C@H](c2cc(F)cc(F)c2)C1 [Example 611, 1-((3S,4R)-4-(3,5-difluorophenyl)-1-(2-methoxyethyl)pyrrolidin-3-yl)-3-(4-methyl-5-oxo-2-phenyl-2,5-dihydro-1H-pyrazol-3-yl)urea]",< 100 nM
3,"COCCN1C[C@@H](NC(=O)Nc2c(C)c(=O)[nH]n2-c2ccccc2)[C@H](c2cc(F)c(F)c(F)c2)C1 [Example 612, 1-((3S,4R)-1-(2-methoxyethyl)-4-(3,4,5-trifluorophenyl)pyrrolidin-3-yl)-3-(4-methyl-5-oxo-2-phenyl-2,5-dihydro-1H-pyrazol-3-yl)urea]",< 100 nM
4,"COCCN1C[C@@H](NC(=O)Nc2c(C)c(=O)[nH]n2-c2ccccc2)[C@H](c2cccc(F)c2)C1 [Example 613, 1-((3S,4R)-4-(3-fluorophenyl)-1-(2-methoxyethyl)pyrrolidin-3-yl)-3-(4-methyl-5-oxo-2-phenyl-2,5-dihydro-1H-pyrazol-3-yl)urea]",< 100 nM
5,"COCCN1C[C@@H](NC(=O)Nc2c(C#N)c(OC)nn2-c2ccccc2)[C@H](c2ccc(F)c(F)c2)C1 [Example 615, 1-(4-cyano-3-methoxy-1-phenyl-1H-pyrazol-5-yl)-3-((3S,4R)-4-(3,4-difluorophenyl)-1-(2-methoxyethyl)pyrrolidin-3-yl)urea]",< 100 nM
6,"CCc1nn(-c2ccccc2)c(NC(=O)N[C@@H]2CN(CCOC)C[C@H]2c2ccc(F)c(F)c2)c1C#N [Example 616, 1-(4-cyano-3-ethyl-1-phenyl-1H-pyrazol-5-yl)-3-((3S,4R)-4-(3,4-difluorophenyl)-1-(2-methoxyethyl)pyrrolidin-3-yl)urea.]",< 100 nM
7,"COCCN1C[C@@H](NC(=O)Nc2c(C#N)c(C(F)(F)F)nn2-c2ccccc2)[C@H](c2ccc(F)c(F)c2)C1 [Example 617, 1-(4-cyano-1-phenyl-3-(trifluoromethyl)-1H-pyrazol-5-yl)-3-((3S,4R)-4-(3,4-difluorophenyl)-1-(2-methoxyethyl)pyrrolidin-3-yl)urea]",< 100 nM
8,"COCCN1C[C@@H](NC(=O)Nc2c(C#N)c(=O)[nH]n2-c2ccccc2)[C@H](c2ccc(F)c(F)c2)C1 [Example 618, 1-(4-cyano-5-oxo-2-phenyl-2,5-dihydro-1H-pyrazol-3-yl)-3-((3S,4R)-4-(3,4-difluorophenyl)-1-(2-methoxyethyl)pyrrolidin-3-yl)urea]",< 100 nM
9,"COCCN1C[C@@H](NC(=O)Nc2c(C(N)=O)c(OC)nn2-c2ccccc2)[C@H](c2ccc(F)c(F)c2)C1 [Example 619, 5-(3-((3S,4R)-4-(3,4-difluorophenyl)-1-(2-methoxyethyl)pyrrolidin-3-yl)ureido)-3-methoxy-1-phenyl-1H-pyrazole-4-carboxamide]",< 100 nM
10,"COCCN1C[C@@H](NC(=O)Nc2c(C(N)=O)c(C)nn2-c2ccccc2)[C@H](c2ccc(F)c(F)c2)C1 [Example 620, 5-(3-((3S,4R)-4-(3,4-difluoro-phenyl)-1-(2-methoxyethyl)pyrrolidin-3-yl)ureido)-3-methyl-1-phenyl-1H-pyrazole-4-carboxamide]",< 100 nM
11,"CCc1nn(-c2ccccc2)c(NC(=O)N[C@@H]2CN(CCOC)C[C@H]2c2ccc(F)c(F)c2)c1C(N)=O [Example 621, 5-(3-((3S,4R)-4-(3,4-difluorophenyl)-1-(2-methoxyethyl)pyrrolidin-3-yl)ureido)-3-ethyl-1-phenyl-1H-pyrazole-4-carboxamide]",< 100 nM
12,"COCCN1C[C@@H](NC(=O)Nc2c(C(N)=O)c(C(F)(F)F)nn2-c2ccccc2)[C@H](c2ccc(F)c(F)c2)C1 [Example 622, 5-(3-((3S,4R)-4-(3,4-difluorophenyl)-1-(2-methoxyethyl)pyrrolidin-3-yl)ureido)-1-phenyl-3-(trifluoromethyl)-1H-pyrazole-4-carboxamide]",< 100 nM
13,"COCCN1C[C@@H](NC(=O)Nc2c(C(N)=O)c(C)nn2-c2ccccc2)[C@H](c2cc(F)cc(F)c2)C1 [Example 626, 5-(3-((3S,4R)-4-(3,5-difluorophenyl)-1-(2-methoxyethyl)pyrrolidin-3-yl)ureido)-3-methyl-1-phenyl-1H-pyrazole-4-carboxamide]",< 100 nM
14,"COCCN1C[C@@H](NC(=O)Nc2c(C(N)=O)cnn2-c2ccccc2)[C@H](c2ccc(F)c(F)c2)C1 [Example 627, 5-(3-((3S,4R)-4-(3,4-difluorophenyl)-1-(2-methoxyethyl)pyrrolidin-3-yl)ureido)-1-phenyl-1H-pyrazole-4-carboxamide]",< 100 nM
15,"COCCN1C[C@@H](NC(=O)Nc2c(C(N)=O)c(C(F)F)nn2-c2ccccc2)[C@H](c2ccc(F)c(F)c2)C1 [Example 628, 3-(difluoromethyl)-5-(3-((3S,4R)-4-(3,4-difluorophenyl)-1-(2-methoxyethyl)pyrrolidin-3-yl)ureido)-1-phenyl-1H-pyrazole-4-carboxamide]",< 100 nM

# Now from value to molecule:
row,IC50,SMILES
1,< 100 nM,"COCCN1C[C@@H](NC(=O)Nc2c(C)c([C@H]3CCCN3C(C)=O)nn2-c2ccccc2)[C@H](c2ccc(F)c(F)c2)C1 [Example 596, 1-(3-((R)-1-acetylpyrrolidin-2-yl)-4-methyl-1-phenyl-1H-pyrazol-5-yl)-3-((3S,4R)-4-(3,4-difluorophenyl)-1-(2-methoxyethyl)pyrrolidin-3-yl)urea]"
2,< 100 nM,"COCCN1C[C@@H](NC(=O)Nc2c(C)c([C@H]3CCCN3C)nn2-c2ccccc2)[C@H](c2ccc(F)c(F)c2)C1 [Example 597, 1-((3S,4R)-4-(3,4-difluorophenyl)-1-(2-methoxyethyl)pyrrolidin-3-yl)-3-(4-methyl-3-((R)-1-methylpyrrolidin-2-yl)-1-phenyl-1H-pyrazol-5-yl)urea dihydrochloride]"
3,< 100 nM,"COCCN1C[C@@H](NC(=O)Nc2c(C)c([C@@H]3CCCN3C)nn2-c2ccccc2)[C@H](c2cc(F)cc(F)c2)C1 [Example 598, 1-((3S,4R)-4-(3,5-difluorophenyl)-1-(2-methoxyethyl)pyrrolidin-3-yl)-3-(4-methyl-3-((S)-1-methylpyrrolidin-2-yl)-1-phenyl-1H-pyrazol-5-yl)urea dihydrochloride]"
4,< 100 nM,"COCCN1C[C@@H](NC(=O)Nc2c(Br)c(COC3CCN(S(C)(=O)=O)CC3)nn2-c2ccccc2)[C@H](c2ccc(F)c(F)c2)C1 [Example 599, 1-(4-bromo-3-((1-(methylsulfonyl)piperidin-4-yloxy)methyl)-1-phenyl-1H-pyrazol-5-yl)-3-((3S,4R)-4-(3,4-difluorophenyl)-1-(2-methoxyethyl)pyrrolidin-3-yl)urea]"
5,< 100 nM,"COCCN1C[C@@H](NC(=O)Nc2c(Br)c(COC3CCN(C(C)=O)CC3)nn2-c2ccccc2)[C@H](c2ccc(F)c(F)c2)C1 [Example 600, 1-(3-((1-acetylpiperidin-4-yloxy)methyl)-4-bromo-1-phenyl-1H-pyrazol-5-yl)-3-((3S,4R)-4-(3,4-difluorophenyl)-1-(2-methoxyethyl)pyrrolidin-3-yl)urea]"
6,< 100 nM,"COCCN1C[C@@H](NC(=O)Nc2c(C)c(-c3nn(C(C)C)c(=O)o3)nn2-c2ccccc2)[C@H](c2ccc(F)c(F)c2)C1 [Example 601, 1-((3S,4R)-4-(3,4-difluorophenyvl)-1-(2-methoxyethyl)pyrrolidin-3-yl)-3-(3-(4-isopropyl-5-oxo-4,5-dihydro-1,3,4-oxadiazol-2-yl)-4-methyl-1-phenyl-1H-pyrazol-5-yl)urea]"
7,< 100 nM,"COCCN1C[C@@H](NC(=O)Nc2c(C)c(-c3nn(C)c(=O)o3)nn2-c2ccccc2)[C@H](c2ccc(F)c(F)c2)C1 [Example 602, 1-((3S,4R)-4-(3,4-difluorophenyl)-1-(2-methoxyethyl)pyrrolidin-3-yl)-3-(4-methyl-3-(4-methyl-5-oxo-4,5-dihydro-1,3,4-oxadiazol-2-yl)-1-phenyl-1H-pyrazol-5-yl)urea]"
8,< 100 nM,"COCCN1C[C@@H](NC(=O)Nc2c(C)c(Oc3cnccn3)nn2-c2ccccc2)[C@H](c2ccc(F)cc2)C1 [Example 603, 1-((3S,4R)-4-(4-fluorophenyl)-1-(2-methoxyethyl)pyrrolidin-3-yl)-3-(4-methyl-1-phenyl-3-(pyrazin-2-yloxy)-1H-pyrazol-5-yl)urea]"
9,< 100 nM,"COCCN1C[C@@H](NC(=O)Nc2c(C)c(-c3ccc(=O)n(C)c3)nn2-c2ccccc2)[C@H](c2cc(F)c(F)c(F)c2)C1 [Example 604, 1-((3S,4R)-1-(2-methoxyethyl)-4-(3,4,5-trifluorophenyl)pyrrolidin-3-yl)-3-(4-methyl-3-(1-methyl-6-oxo-1,6-dihydropyridin-3-yl)-1-phenyl-1H-pyrazol-5-yl)urea]"
10,< 100 nM,"COCCN1C[C@@H](NC(=O)Nc2c(C(F)(F)F)c(OC)nn2-c2ccccc2)[C@H](c2ccc(F)c(F)c2)C1 [Example 605, 1-((3S,4R)-4-(3,4-difluorophenyl)-1-(2-methoxyethyl)pyrrolidin-3-yl)-3-(3-methoxy-1-phenyl-4-(trifluoromethyl)-1H-pyrazol-5-yl)urea]"
11,< 100 nM,"COCCN1C[C@@H](NC(=O)Nc2c(C(F)(F)F)c(OC)nn2-c2ccccc2)[C@H](c2cc(F)cc(F)c2)C1 [Example 606, 1-((3S,4R)-4-(3,5-difluorophenyl)-1-(2-methoxyethyl)pyrrolidin-3-yl)-3-(3-methoxy-1-phenyl-4-(trifluoromethyl)-1H-pyrazol-5-yl)urea]"
12,< 100 nM,"COCCN1C[C@@H](NC(=O)Nc2c(C(F)(F)F)c(OC)nn2-c2ccccc2)[C@H](c2ccc(F)cc2)C1 [Example 607, 1-((3S,4R)-4-(4-fluorophenyl)-1-(2-methoxyethyl)pyrrolidin-3-yl)-3-(3-methoxy-1-phenyl-4-(trifluoromethyl)-1H-pyrazol-5-yl)urea]"
